{"source": "patent US11819499B2", "about": "“Single-dose, ready-to-use injectable formulations” (BioSplice Therapeutics, Inc., priority 2016, dated 2023)", "type_in_all_cases": "physicochemical", "key": {"[1]": {"assay": "Dynamic vapor sorption (DVS) scan", "conditions": "at 90% RH", "excerpt": "The purity of the Form 13 sample was 98.8%; the KF of an undried Form 13 sample was 35.7%."}, "[2]": {"assay": "Drying or heating in a DSC chamber followed by XRD (form conversion)", "description": "The Form 1 solid was dried at 75° C. under vacuum overnight, and XRD, DSC, and TGA scans were performed. […] However, the DSC scans indicated the absence of endotherm. The loss of the early peak on the DSC scan had no effect on the XRD trace, showing that the wide endotherm between 50-100° C. on DSC scan was due to the free solvent.\nThe Form 1 solid was heated in a DSC chamber to 305° C. (past the endotherm/exotherm around 280° C.), and then scanned by XRD. […] It can be concluded that the endotherm/exotherm around 280° C. might be due to melting/crystallization events.\nThe Form 2 solid was heated in a DSC machine to 90° C. (past the wide endotherm between 50-100° C.); to 270° C. (past the endotherm/exotherm around 240° C.); and finally to 330° C. (past the […]). The residual solid was analyzed by XRD. […] The wide endotherm between 50-100° C. might be free solvent or hydrate. […] Thus, the exotherm around 290° C. was a re-crystallization event. According to an XRD and DSC overlay, the behavior of Form 2* was similar to Form 2.\nThis has been confirmed for Forms 1 and 2.\nForm 13 solid was heated in a DSC chamber to 170° C. (past the endotherm between 50-100° C.), and then scanned by XRD. […] It can be concluded that the endotherm between 50-100° C. is due to bonded water.\nForm 13 solid was heated in a DSC chamber to 330° C. (past the endotherm/exotherm around 300° C.), and then scanned by XRD. […] It can be concluded that the endotherm/exotherm is due to melting/crystallization events."}, "[3]": {"assay": "Competitive slurry experiments between polymorph forms (15 forms mixed, 3-5 days, XRD)", "conditions": "water at RT and 50° C.", "description": "In order to find out the thermodynamic stability between the different forms, several competitive slurry experiments were carried out. Form 1, Form 2, Form 2*, Form 3, Form 4, Form 4*, Form 4**, Form 5, Form 7, Form 8, Form 9, Form 10, Form 11, Form 11*, and Form 13 (10 mg for each) was mixed and slurried in 2 mL of solvent at both RT and 50° C. The solids were slurried for 3-5 days and then analyzed by XRD."}, "[4]": {"assay": "Exposure to relative humidity / air followed by XRD", "excerpt": "FIGS. 15A-15D are scans of Form 1 in the presence of increasing relative humidity (RH), an example of a non-stoichiometric or stoichiometric hydrate of polymorph Form 1 of the compound of Formula (I). FIG. 15A is an x-ray powder diffraction scan of Form 1 exposed to 10% RH as the anhydrous Form 1. FIG. 15B is an x-ray powder diffraction scan of Form 1 exposed to 20% RH as a partial hydrate of Form 1. FIG. 15C is an x-ray powder diffraction scan of Form 1 exposed to 30% RH as a hydrate of Form 1 (≈10-12% water uptake). FIG. 15D is an x-ray powder diffraction scan of Form 1 exposed to 90% RH as a full hydrate of Form 1 (≈17-20% water uptake). […] The hydrate lost its water below 30% RH. […] The crystal lattice of Form 1 expanded when water was sorbed, giving rise to XRD peaks at ˜5, ˜7 and ˜11 degrees while maintaining the main XRD pattern. The hydrates of Form 1 of a compound of Formula (I) (Form 11) were fully reversible, and lost water when exposed to % RH of less than 20%, turning Form 11 to hydrated forms of Form 1 and to the anhydrous Form 1. Solvates 1 and 2 solids were exposed to air overnight, and then analyzed by XRD. After the analysis, the solids were dried at 50° C. under vacuum, and then analyzed by XRD again."}, "[5]": {"assay": "Reslurry experiments (polymorph screen) in 39 pure and binary solvents at RT and 50° C. for 5 days, XRD of wet and dry samples", "description": "Reslurry experiments in various solvents were performed. Approximately 30-80 mg of the starting solid (a non-stoichiometric or stoichiometric hydrate of Form 1 having between 1% and about 20% by weight water) was slurried in 39 different solvents (pure and binary solvents; the ratio of organic solvent/water (V/V) was 95%/5%) at RT and 50° C. for 5 days. Three solvates, one hydrate, and eleven non-solvated forms were identified. […] XRD of both wet and dry samples were scanned (FIG. 12A (dry sample)).\nThe slurry experiments identified 3 solvated forms from wet samples (Solvates 1, 2, and 3); 2 non-stoichiometric hydrates of Form 1 (Forms 12 and 13); and 11 non-solvated forms (Forms 1-11). In some instances, similar XRD scans with minor differences were obtained. These were considered to be part of the same class (e.g., the same form). For example, XRD scans of Form 2 and Form 2* were similar and were considered to belong to the same class. The solvated forms were obtained from wet sample analysis; after drying, the sample indicated a different XRD.\nSolvate 1 was obtained from acetone at RT, and after drying, a low crystallinity solid was generated. Solvate 2 was obtained from acetone (at RT) and acetone/water (at RT), and after drying, Form 4** was generated. Solvate 3 was obtained from EtOH/water at RT, and after drying, Form 2 was generated."}, "[6]": {"assay": "Exposure to relative humidity / air followed by XRD", "remark": "listed apart in the source"}, "[7]": {"assay": "Solubility of the starting solid by the gravimetric method", "conditions": "at RT and at 50° C. in all solvents tested except DMF and DMSO"}, "[8]": {"conditions": "reslurry in Acetonitrile/water (5% water), 50° C."}, "[9]": {"conditions": "reslurry in DCM/water (5% water), 50° C."}, "[10]": {"conditions": "reslurry in DCM/water (5% water), RT"}, "[11]": {"conditions": "reslurry in Heptane/water (5% water), 50° C."}, "[12]": {"conditions": "reslurry in Heptane/water (5% water), RT"}, "[13]": {"conditions": "reslurry in IPAc/water (5% water), 50° C."}, "[14]": {"conditions": "reslurry in MA/water (5% water), RT"}, "[15]": {"conditions": "reslurry in MIBK/water (5% water), 50° C."}, "[16]": {"conditions": "reslurry in MeOH/water (5% water), 50° C."}, "[17]": {"conditions": "reslurry in MtBE/water (5% water), 50° C."}, "[18]": {"conditions": "reslurry in Toluene/water (5% water), 50° C."}, "[19]": {"conditions": "reslurry in Toluene/water (5% water), RT"}, "[20]": {"conditions": "reslurry in n-Butanol/water (5% water), 50° C."}, "[21]": {"conditions": "reslurry in n-Butanol/water (5% water), RT"}, "[22]": {"conditions": "reslurry in n-Butyl acetate/water (5% water), 50° C."}, "[23]": {"conditions": "reslurry in n-Butyl acetate/water (5% water), RT"}}, "data": [{"molecule": "CC(C)CC(=O)Nc1cncc(-c2ccc3[nH]nc(-c4nc5c(-c6cccc(F)c6)cncc5[nH]4)c3c2)c1", "note": "[Form 13, N-(5-(3-(7-(3-fluorophenyl)-3H-imidazo[4,5-c]pyridin-2-yl)-1H-indazol-5-yl)pyridin-3-yl)-3-methylbutanamide]", "values": [{"measurement": "water absorption (DVS scan)", "setting": "[1]", "value": 17, "unit": "%"}, {"measurement": "form after heating (XRD)", "setting": "[2]; heated in a DSC chamber to 170° C.", "value": "converted to Form 1"}, {"measurement": "form after heating (XRD)", "setting": "[2]; heated to 330° C.", "value": "converted to Form 9"}, {"measurement": "form upon drying", "setting": "[2]; upon drying", "value": "converted to Form 1"}, {"measurement": "thermodynamic stability between forms (competitive slurry)", "setting": "[3]", "value": "most stable"}, {"measurement": "RH below which the hydrate lost its water", "setting": "[4]; relative humidity", "value": "below 30%"}, {"measurement": "Dry (form by XRD)", "setting": "[5]; [8]", "value": "Form 13"}, {"measurement": "Wet (form by XRD)", "setting": "[5]; [8]", "value": "Form 13"}, {"measurement": "Dry (form by XRD)", "setting": "[5]; reslurry in DCM, 50° C.", "value": "Form 13"}, {"measurement": "Wet (form by XRD)", "setting": "[5]; reslurry in DCM, 50° C.", "value": "Form 13"}, {"measurement": "Dry (form by XRD)", "setting": "[5]; [9]", "value": "Form 1"}, {"measurement": "Wet (form by XRD)", "setting": "[5]; [9]", "value": "Form 13"}, {"measurement": "Dry (form by XRD)", "setting": "[5]; [10]", "value": "Form 1"}, {"measurement": "Wet (form by XRD)", "setting": "[5]; [10]", "value": "Form 13"}, {"measurement": "Dry (form by XRD)", "setting": "[5]; reslurry in Heptane, 50° C.", "value": "Form 13"}, {"measurement": "Wet (form by XRD)", "setting": "[5]; reslurry in Heptane, 50° C.", "value": "Form 13"}, {"measurement": "Dry (form by XRD)", "setting": "[5]; [11]", "value": "Form 1"}, {"measurement": "Wet (form by XRD)", "setting": "[5]; [11]", "value": "Form 13"}, {"measurement": "Dry (form by XRD)", "setting": "[5]; [12]", "value": "Form 12"}, {"measurement": "Wet (form by XRD)", "setting": "[5]; [12]", "value": "Form 13"}, {"measurement": "Dry (form by XRD)", "setting": "[5]; [13]", "value": "Form 13"}, {"measurement": "Wet (form by XRD)", "setting": "[5]; [13]", "value": "Form 13"}, {"measurement": "Dry (form by XRD)", "setting": "[5]; [14]", "value": "Form 1"}, {"measurement": "Wet (form by XRD)", "setting": "[5]; [14]", "value": "Form 13"}, {"measurement": "Dry (form by XRD)", "setting": "[5]; [15]", "value": "Form 1"}, {"measurement": "Wet (form by XRD)", "setting": "[5]; [15]", "value": "Form 13"}, {"measurement": "Dry (form by XRD)", "setting": "[5]; reslurry in MeOH, RT", "value": "Form 1"}, {"measurement": "Wet (form by XRD)", "setting": "[5]; reslurry in MeOH, RT", "value": "Form 13"}, {"measurement": "Dry (form by XRD)", "setting": "[5]; [16]", "value": "Form 13"}, {"measurement": "Wet (form by XRD)", "setting": "[5]; [16]", "value": "Form 13"}, {"measurement": "Dry (form by XRD)", "setting": "[5]; [17]", "value": "Form 13"}, {"measurement": "Wet (form by XRD)", "setting": "[5]; [17]", "value": "Form 13"}, {"measurement": "Dry (form by XRD)", "setting": "[5]; [18]", "value": "Form 13"}, {"measurement": "Wet (form by XRD)", "setting": "[5]; [18]", "value": "Form 13"}, {"measurement": "Dry (form by XRD)", "setting": "[5]; [19]", "value": "Form 1"}, {"measurement": "Wet (form by XRD)", "setting": "[5]; [19]", "value": "Form 13"}, {"measurement": "Dry (form by XRD)", "setting": "[5]; [20]", "value": "Form 1"}, {"measurement": "Wet (form by XRD)", "setting": "[5]; [20]", "value": "Form 13"}, {"measurement": "Dry (form by XRD)", "setting": "[5]; [21]", "value": "Form 13"}, {"measurement": "Wet (form by XRD)", "setting": "[5]; [21]", "value": "Form 13"}, {"measurement": "Dry (form by XRD)", "setting": "[5]; [22]", "value": "Form 1"}, {"measurement": "Wet (form by XRD)", "setting": "[5]; [22]", "value": "Form 13"}, {"measurement": "Dry (form by XRD)", "setting": "[5]; [23]", "value": "Form 12"}, {"measurement": "Wet (form by XRD)", "setting": "[5]; [23]", "value": "Form 13"}, {"measurement": "Dry (form by XRD)", "setting": "[5]; reslurry in water, 50° C.", "value": "Form 13"}, {"measurement": "Wet (form by XRD)", "setting": "[5]; reslurry in water, 50° C.", "value": "Form 13"}, {"measurement": "Dry (form by XRD)", "setting": "[5]; reslurry in water, RT", "value": "Form 1"}, {"measurement": "Wet (form by XRD)", "setting": "[5]; reslurry in water, RT", "value": "Form 13"}]}, {"molecule": "CC(C)CC(=O)Nc1cncc(-c2ccc3[nH]nc(-c4nc5c(-c6cccc(F)c6)cncc5[nH]4)c3c2)c1", "note": "[Form 1, N-(5-(3-(7-(3-fluorophenyl)-3H-imidazo[4,5-c]pyridin-2-yl)-1H-indazol-5-yl)pyridin-3-yl)-3-methylbutanamide]", "values": [{"measurement": "water absorption (DVS scan)", "setting": "[1]", "value": 17, "unit": "%"}, {"measurement": "XRD after drying", "setting": "[2]; dried at 75° C. under vacuum overnight", "value": "no change"}, {"measurement": "form after heating (XRD)", "setting": "[2]; heated in a DSC chamber to 305° C.", "value": "converted to Form 9"}, {"measurement": "form when heated to just before melting", "setting": "[2]; heated to just before melting at 364° C.", "value": "convert to Form 9"}, {"measurement": "water uptake", "setting": "[4]; exposed to 30% RH (FIG. 15C), hydrate of Form 1", "value": "10-12%"}, {"measurement": "water uptake", "setting": "[4]; exposed to 90% RH (FIG. 15D), full hydrate of Form 1", "value": "17-20%"}, {"measurement": "form when exposed to air", "setting": "[4]; exposed to air", "value": "converts to Form 13"}, {"measurement": "RH above which Form 1 tended to convert to hydrate of Form 1 (Form 13)", "setting": "[6]", "value": "above 4050%"}]}, {"molecule": "CC(C)CC(=O)Nc1cncc(-c2ccc3[nH]nc(-c4nc5c(-c6cccc(F)c6)cncc5[nH]4)c3c2)c1", "note": "[starting solid, N-(5-(3-(7-(3-fluorophenyl)-3H-imidazo[4,5-c]pyridin-2-yl)-1H-indazol-5-yl)pyridin-3-yl)-3-methylbutanamide]", "values": [{"measurement": "Solubility (in words)", "setting": "[7]", "value": "low solubility"}]}]}
